Legend:
[1] = tested on: IL-1Ra production in human kidney proximal tubular cell line (HK-2); experiment: IL-1Ra production in HK-2 cell culture media, ELISA; format: cell-based; conditions: HK-2 cells; for concentration of IL-1Ra: FIG. 1B
Method: Human kidney proximal cell line is commercially available and may be purchased, for example, from American Type Culture Collection (ATCC) under the symbol HK-2.
The immortalized human kidney proximal tubular cell line (HK-2) was cultured in DMEM/F12 containing 2.50 g/l HEPES, 1.80 g/l sodium bicarbonate, 100 U/ml penicillin, […] streptomycin, and 10% FCS at 37° C. in 5% CO2. After being digested with 0.25% trypsin, 1×10^5 cells were grown in 50 ml plastic culture bottles. The cells were cultured overnight in DMEM/F12 5% FCS; then, media were changed to fresh DMEM/F12 5% FCS containing diacerin with various concentrations of 2.0 μg/ml, 2.5 μg/ml, 3.0 μg/ml, 5.0 μg/ml, 10 μg/ml, 20 μg/ml, and negative (5% FCS) controls. Cultures were continued for further time points of 0 hour, 0.5 hour, 1 hour, 3 hours, 5 hours, 8 hours, 16 hours, 32 hours, and 72 hours. Upon reaching each time point, the media were collected. The cell culture method is well explained in Yao, et al, Preventive Effects of Salvianolic Acid on Transforming Growth Factorb 1-Induced Epithelial-to-Mesenchymal Transition of Human Kidney Cells, Biol. Pharm. Bull. 2009, 32(5) 882-886.
The collected media at each time point and concentration were assayed for IL-1Ra concentrations using ELISA assays.

[2] = tested on: IL-1β; conditions: human OA cartilage and synovial tissue cultures; cited from earlier work
[3] = tested on: IL-1 receptor antagonist (IL-1Ra); conditions: cartilage culture media; cited from earlier work
[4] = tested on: INS-1E cells; conditions: reported in the literature; positive control; cited from earlier work

With `CC(=O)Oc1cccc2c1C(=O)c1c(OC(C)=O)cc(C(=O)O)cc1C2=O` [diacerin, 4,5-bis(acetyloxy)-9,10-dioxo-2-anthracene carboxylic acid] the “concentration of IL-1Ra” value ([1]; 5 μg/ml diacerin, 16 hours treatment) was “approximately 0.8 pg/ml”, the “concentration of IL-1Ra” value ([1]; 10 μg/ml diacerin, 16 hours treatment) was “approximately 1.3 pg/ml” and the “concentration of IL-1Ra” value ([1]; 20 μg/ml diacerin, 16 hours treatment) was “approximately 4.2 pg/ml”. The “concentration at which IL-1Ra production was first observed” value ([1]; 16 hours treatment) was 5 µg/mL, the “effect on IL-1Ra production” value ([1]; 16 hours treatment) was “dose-dependently increased” and the “dose-dependent effect on production of IL-1Ra” value ([1]; 32 hours treatment) was “diminished”. For the same compound, the “dose-dependent effect on production of IL-1Ra” value ([1]; 72 hours treatment) was “diminished”, the IL-1β production [2] was “significantly inhibited” and the IL-1Ra levels [3] was “increased”.

In the case of `O=C(O)c1cc(O)c2c(c1)C(=O)c1cccc(O)c1C2=O` [rhein, 9,10-dihydro-4,5-dihydroxy-9,10-dioxo-2-anthracenecarboxylic acid], the IL-1β production [2] is listed as “significantly inhibited” and the IL-1Ra levels [3] is listed as “increased”.

In the case of “Exendin-4: positive control, reported to inhibit IL-1β-induced INS-1E cell apoptosis”, the “IL-1β-induced INS-1E cell apoptosis” value [4] is listed as “inhibit”.
